Measurements: patent US7517913B2, “Polyamine conjugates with acidic retinoids and preparation thereof” (priority 2002, dated 2009)
pKi: −log10 of the molar value. Structures can show the parent of a compound that is named as a salt.

Tests used:
[1] = target: RNase P isolated from D. discoideum; experiment: RNase P inhibition assay, enzyme from D. discoideum; format: biochemical, Dictyostelium discoideum; conditions: negative intercept of slope replots, 37° C., buffer D, 10% DMSO
Source text: Inhibitory Activity on RNAse P. We have developed a method by which we can estimate rapidly the biological activity of the polyamine-retinoid conjugates. This method is based on the effect of the polyamine-retinoid conjugates on RNase P activity and is described in detail under the EXAMPLE 7. All synthesized conjugates were screened for their effect on RNase P activity by constructing the dose response curves. […] In order to carry out such analysis, the initial velocity in the presence or absence of the conjugate was determined from the initial slopes of time plots. The data plotted in double reciprocal plots (1/v versus 1/[S]) with increasing concentrations of polyamine-retinoid conjugates and the Ki values (the dissociation constant of the inhibitor (I), where I is a polyamine-retinoid conjugate, with the enzyme) were determined from the replots of the slopes of the double reciprocal plots versus the inhibitor's concentration (Papadimou et al., J. BIOL. CHEM. 273, 24375 (1998), Papadimou et al., SKIN PHARMACOL. APPL. SKIN PHYSIOL. 13, 345 (2000)). These replots lead to the graphical determination of Ki values from the negative intercept of the line with the I-axis. […] Similar plots were constructed for all conjugates. The Ki value is a very good measure for the accurate potency of the polyamine-retinoid conjugates.
(§1) RNase P assays were carried out at 37° C. in 20 μbuffer D (50 mM Tris/HCl pH 7.6, 10 mM NH4Cl, 5 mM MgCl2 and 5 mM dithiothreitol) if RNase P isolated from D. discoideum was used (Stathopoulos et al.; EUR. J. BIOCHEM. 228, 976 (1995)) or buffer K (50 mM Tris/HCl pH 7.5, 100 mM NH4Cl, 5 mM MgCl2 and 5 mM dithiothreitol) if RNase P isolated from human epidermal keratinocytes was used (Drainas et al, unpublished data), containing 2-5 finol pre-tRNA^ser substrate (an in vitro labeled transcript of the Schizosaccharoinyces pombe tRNA^ser gene supSI) and 1.3 μg protein from the RNase P fraction. Stock solutions of retinoids (natural or synthetic), are prepared in 100% dimethylosulfoxide (DMSO). When retinoids are used, enzyme assays are carried out in the presence of 10% DMSO. The reactions were stopped by addition of 5 μl stop dye (80% formamide, 50 mM EDTA, 0.1% bromophenol blue, 0.1% xylene cyanol). Reaction products were resolved on a denaturing 10% polyacrylamide/8 M urea gel and visualized by autoradiography without drying. Activity was quantified by Cerenkov counting of excised gel slices.

[2] = test system: RNase P from Dictyostelium discoideum; conditions: literature; RNase P isolated from D. discoideum and from normal human epidermal keratinocytes; cited from earlier work
[3] = test system: RNase P isolated from D. discoideum; conditions: literature reports; RNase P from D. discoideum and normal human epidermal keratinocytes; cited from earlier work
[4] = Manfredini et al., J. MED. CHEM., 40, 3851 (1997); cited from earlier work
[5] = target: RNase P from Dictyostelium discoideum; experiment: RNase P inhibition (pre-tRNA(Ser) cleavage, double reciprocal plots and slope replots); format: biochemical; conditions: D. discoideum RNase P; 37° C., buffer D, 10% DMSO; from negative intercept of the slope replots
Source text: Inhibitory Activity on RNAse P. We have developed a method by which we can estimate rapidly the biological activity of the polyamine-retinoid conjugates. This method is based on the effect of the polyamine-retinoid conjugates on RNase P activity and is described in detail under the EXAMPLE 7. All synthesized conjugates were screened for their effect on RNase P activity by constructing the dose response curves. […] The accurate estimation of the inhibitory potency on the RNAse P of the strongest polyamine-retinoid conjugates were elucidated by detailed kinetic analysis of their effect on D. discoideum or human epidermal keratinocytes RNase P activity. In order to carry out such analysis, the initial velocity in the presence or absence of the conjugate was determined from the initial slopes of time plots. The data plotted in double reciprocal plots (1/v versus 1/[S]) with increasing concentrations of polyamine-retinoid conjugates and the Ki values (the dissociation constant of the inhibitor (I), where I is a polyamine-retinoid conjugate, with the enzyme) were determined from the replots of the slopes of the double reciprocal plots versus the inhibitor's concentration (Papadimou et al., J. BIOL. CHEM. 273, 24375 (1998), Papadimou et al., SKIN PHARMACOL. APPL. SKIN PHYSIOL. 13, 345 (2000)). These replots lead to the graphical determination of Ki values from the negative intercept of the line with the I-axis. […] Similar plots were constructed for all conjugates. The Ki value is a very good measure for the accurate potency of the polyamine-retinoid conjugates. […] Similar Ki values were obtained with normal human epidermal keratinocytes RNase P.
as §1

[6] = test system: IL-2 production by peripheral blood mononuclear cells; experiment: Intracellular IL-2 in PMA/ionomycin-stimulated peripheral blood mononuclear cells (flow cytometry); format: cell-based, human
Procedure: (§2) Anti-Inflammatory Activity. Preliminary experiments were performed to determine the optimum conditions for IL-2 and IFN-γ detection intracellularly (data not shown), which mainly involved determination of brefeldin, ionomycin and PMA concentrations and duration of the incubation period and of the brefeldin presence. It was determined that the addition at the initiation of the incubation period of 5 ng/ml of PMA in combination with 250 ng/ml of ionomycin, as well as the addition for the last 2 h of a 4 h incubation period of 5 μg/ml of brefeldin, were accompanied by a peak release of both cytokines in the intracellular space.
(§3) For the purpose of the study, peripheral blood mononuclear cells (PBMC) from ten healthy volunteers (age 33-52 yrs) were incubated in 1 ml volume (RPMI 1640/10% FCS) for varying time periods at 37° C. in a CO2 (5%) incubator in the presence or absence of PMA (Sigma, St Louis, Mo.), ionomycin (Sigma, St Louis, Mo.) and/or the polyamine-retinoid conjugate (10^−4, 10^−5, 10^−6 M) as well as a protein transport inhibitor, brefeldin (Sigma, St Louis, Mo.) to prevent cytokine secretion in the extracellular space.
(§4) Following this incubation, PBMC were stained with either an anti-CD4-FITC or anti-CD8-FITC monoclonal antibody (Beckton Dikinson Hellas, Athens, Greece) in a PBS buffer containing 0.5% BSA and 0.01% NaN3, and were subsequently fixed with paraformaldehyde and incubated overnight. In the next step, fixed PBMCs were washed and resuspended in a PBS buffer containing 0.5% BSA, 0.5% saponin (Sigma, St Louis, Mo.) (to permeabilize cells) and 0.01% NaN3. Fixed PBMC were subsequently stained with an anti-IL-2/PE or anti-IFN-γ/PE monoclonal antibody (Diaclone, Besancon, France) and analysed for intracellular expression of IL-2 or IFN-γ and membrane expression of the CD4 or CD8 antigens in a FACSCAN flow cytometer. Throughout this step, saponin-supplied PBS was used, since its permeabilisation effect is reversible. The immunofluorescence cut-off was set up in unstimulated cultures as background and results were expressed either as the percentage of CD4/IL-2+ and CD8/IL-2+ (FIG. 9) and CD8/IFN-γ^+ and CD4/IFN-γ^+ (FIG. 11) cells, or alternatively as their mean fluorescence intensity (FIGS. 10 and 12, respectively).

[7] = test system: IFN-γ production by peripheral blood mononuclear cells; experiment: Intracellular IFN-γ in PMA/ionomycin-stimulated peripheral blood mononuclear cells (flow cytometry); format: cell-based, human
Procedure: as §2, §3
as §4, with “In the next step, fixed PBMCs were washed and resuspended in a PBS buffer containing 0.5% BSA, 0.5% saponin (Sigma, St Louis, Mo.) (to permeabilize cells) and 0.01% NaN3.” left out, “Throughout this step, saponin-supplied PBS was used, since its permeabilisation effect is reversible.” left out

Compound	pKi [5]	pKi [1]	inhibition of the enzyme ribonuclease P (RNase P) [2]	inhibition of ribonuclease P (RNase P) [3]	also measured
CC(C=CC1=C(C)CCCC1(C)C)=CC=CC(C)=CC(=O)N(CCCN)CCCCN(CCCN)C(=O)C=C(C)C=CC=C(C)C=CC1=C(C)CCCC1(C)C [3DIIIa, N^4,N^9-Bis(All-Trans-Retinoyl)Spermine]	–	5.96	–	–	–
CC(C=CC1=C(C)CCCC1(C)C)=CC=CC(C)=CC(=O)NCCCNCCCCNCCCN [3DIIa, N^1-retinoylspermine]	–	5.62	–	–	–
COc1cc(C)c(/C=C/C(C)=C/C=C/C(C)=C/C(=O)O)c(C)c1C [Acitretin (Aci), acitretin]	–	5.10	inhibit the enzyme ribonuclease P	inhibit	–
CC1=C(/C=C/C(C)=C/C=C/C(C)=C\C(=O)O)C(C)(C)CCC1 [Isotretinoin, 13-cis-retinoic acid]	–	4.70	inhibit the enzyme ribonuclease P	inhibit	–
CC1=C(/C=C/C(C)=C/C=C/C(C)=C/C(=O)NCCCNC(=O)/C=C(C)/C=C/C=C(C)/C=C/C2=C(C)CCCC2(C)C)C(C)(C)CCC1 [N^1, N^3-diretinoyl-1,3-diaminopropane]	–	–	–	–	cytostatic activity [4]: low cytostatic activity
CC1=C(/C=C/C(C)=C/C=C/C(C)=C/CO)C(C)(C)CCC1 [Retinol, retinol]	–	2.83	inhibit the enzyme ribonuclease P	inhibit	–
CCOC(=O)c1ccc(/C=C(\C)c2ccc3c(c2)C(C)(C)CCC3(C)C)cc1 [Ro 13-6298]	2.36	–	inhibit the enzyme ribonuclease P	inhibit	–
CC1=C(/C=C/C(C)=C/C=C/C(C)=C/C(=O)O)C(C)(C)CCC1 [all-trans-Retinoic acid (RA), all-trans-retinoic acid]	–	4.82	inhibit the enzyme ribonuclease P	inhibit	–
O=C1c2c(O)cccc2Cc2cccc(O)c21 [anthralin]	–	–	inhibit the enzyme ribonuclease P	–	–
C=C1/C(=C\C=C2/CCC[C@]3(C)[C@@H]([C@H](C)/C=C/[C@@H](O)C4CC4)CC[C@@H]23)C[C@@H](O)C[C@@H]1O [calcipotriol]	–	–	inhibit the enzyme ribonuclease P	inhibit	–

Second part, led by results:

pKi [5]	Compound	pKi [1]	inhibition of the enzyme ribonuclease P (RNase P) [2]	inhibition of ribonuclease P (RNase P) [3]	also measured
6.02	COc1cc(C)c(/C=C/C(C)=C/C=C/C(C)=C/C(=O)NCCCNCCCCNCCCNC(=O)/C=C(C)/C=C/C=C(C)/C=C/c2c(C)cc(OC)c(C)c2C)c(C)c1C [N^1,N^12-Aci2-Spermine (3DIb). 2 HCl, N^1,N^12-Aci2-Spermine]	–	–	–	–
6.30	CC1=C(/C=C/C(C)=C/C=C/C(C)=C/C(=O)NCCCNCCCCNCCCNC(=O)/C=C(C)/C=C/C=C(C)/C=C/C2=C(C)CCCC2(C)C)C(C)(C)CCC1 [N^1,N^12-RA2-Spermine (3DIa), N^1,N^12-Bisretinoylspermine]	–	–	–	intensity of fluorescence (MFI) of CD4+/IL-2+ cells ([6]; 10^−4 M, PMA/ionomycin-induced): decrease; intensity of fluorescence (MFI) of CD8+/IL-2+ cells ([6]; 10^−4 M, PMA/ionomycin-induced): decrease; percentage of CD4+/IL-2+ cells ([6]; 10^−4 M, PMA/ionomycin-induced): decrease; percentage of CD8+/IL-2+ cells ([6]; 10^−4 M, PMA/ionomycin-induced): decrease; effect on PMA/ionomycin-induced IL-2 (percentage of CD4+/IL-2+ and CD8+/IL-2+ cells, intensity of fluorescence) ([6]; 10^−5 and 10^−6 M): minimal or no effect; CD4+/IFN-γ+ cell intensity of fluorescence ([7]; 10^−4 M, PMA/ionomycin-induced): decrease; percentage of CD8+/IFN-γ+ cells ([7]; 10^−4 M, PMA/ionomycin-induced): decrease; effect on IFN-γ (CD4+/IFN-γ+ intensity of fluorescence, percentage of CD8+/IFN-γ+ cells) ([7]; two lower concentrations, 10^−5 and 10^−6 M): minimal or no effect
5.61	COc1cc(C)c(/C=C/C(C)=C/C=C/C(C)=C/C(=O)NCCCNCCCCNCCCN)c(C)c1C [N^1-Aci-Spermine (3DIIb). 3 HCl, N^1-Aci-Spermine]	–	–	–	–
4.35	C/C(=C\c1ccc(C(=O)O)cc1)c1ccc2c(c1)C(C)(C)CCC2(C)C [Ro 13-7410]	–	inhibit the enzyme ribonuclease P	inhibit	–
2.44	CCS(=O)(=O)c1ccc(/C=C(\C)c2ccc3c(c2)C(C)(C)CCC3(C)C)cc1 [Ro 15-1570]	–	inhibit the enzyme ribonuclease P	inhibit	–
